Results: US20260263638A1, “COMPOSITIONS AND METHODS TO IMPROVE RNA PROPERTIES USING BASE, PHOSPHODIESTER LINKAGE, SUGAR BACKBONE, AND CAP MODIFICATIONS” (The Broad Institute, Inc., priority 2023, published 2026)

Legend:
[1] = Quantification of plasma hEPO by ELISA after mRNA-LNP injection; assay type: in vivo; details: mice, hEPO mRNA-LNP retro-orbital
Procedure: All animal procedures followed animal care guidelines approved by the Institutional Animal Care and Use Committee (IACUC) of the Broad Institute of MIT and Harvard under animal protocol #0255-08-19. Animal experiments were conducted in compliance with IACUC policies and NIH guidelines. The BALB/cj (male, 6~8 weeks old) mice used for in vivo NanoLuc assay in this study were purchased from The Jackson Laboratory (JAX). The C57BL/6 mice (female, 7 weeks old), used for hEPO assay in this study were purchased from The Jackson Laboratory (JAX).
(§1) mRNA diluted in 50 mM citrate buffer (pH 4) and lipid mix (37.5 mM in ethanol) containing 50 mol % SM-102, 10 mol % DSPC, 38.5 mol % Cholesterol, and 1.5 mol % DMG-PEG2000 were assembled into LNP using a NanoAssemblr Spark instrument [Precision Nanosystems]. Upon formulation, mRNA-LNPs were diluted in 12 mL 1×PBS solution and the buffer was exchanged by concentrating with a 30 kDa spin filter [MilliporeSigma, UFC901008] to remove residue ethanol. Concentrations and encapsulation efficiency of mRNA were determined using Quant-it RiboGreen RNA Assay Kit [ThermoFisher, R11490]. 1 μg NanoLuc or hEPO mRNA-LNP in a total volume of 100 μL was injected through retro orbital injection into each mouse. Four mice were used for each condition of each experiment (NanoLuc imaging, hEPO ELISA, and reticulocyte counting). For NanoLuc imaging, PBS injection was used as negative control. For hEPO/reticulocyte experiments, poly(C)-LNP complex was used as negative control.
At the indicated time points, approximately 100 μL of blood was collected with EDTA-coated capillary tubes from each mouse and then transferred to an EDTA-coated tube. The collected blood samples were centrifuged at 2000 g for 10 min, followed by transferring the resulting plasma into another tube. The hEPO levels in the plasma samples were measured by Human Erythropoietin (EPO) ELISA kit [LEGEND MAX, 442907]. Final concentrations for hEPO were adjusted based on the volume and dilution fold.

reticulocytes = test: Plasma reticulocyte counting by flow cytometry; assay type: in vivo; details: mice; day 6 post-administration
Procedure: as §1
10 μL […] sample was added into 1 mL of the Reticulocyte Reagent [BD Bioscience] at the indicated time points and the mixture was incubated at room temperature for 30 minutes with protection from light. The samples were analyzed with Beckman CytoFLEX LX Flow Cytometer with 100,000-event records for each sample. Thiazole orange positive cells are defined as reticulocytes.

[2] = tested on: plasma tumor necrosis factor alpha (TNF-α); set-up: species or system mice; details: mouse, in vivo
Procedure: (§2) To evaluate the in vivo toxicity and immune response, plasma collected on day 7 post mRNA-LNP administration for the hEPO group. ALT and TNF-alpha were measured using ELISA kits for ALT [G-Biosciences, IT5508] and TNF-alpha [R&D Systems, MTA00B] per manufacturer's protocols.

[3] = tested on: plasma alanine transaminase (ALT); test: In vivo toxicity assay: plasma ALT ELISA; details: mice; hEPO mRNA-LNP groups
Procedure: as §2

Substance: construct S20: hEPO mRNA, two LNAm7G caps, LNA-2OMe 5′ UTR, PS-2MOE_ddC tail, in LNP (SEQ ID NO: 137) (AGATAAATAAAAAA; mRNA with two LNA-m7G caps, LNA/2'-OMe UTR, PS-MOE ddC tail, in LNP, further chemistry not given here)
- Plasma hEPO expression remained detectable until [1]: 6 days
- Time of peak plasma hEPO expression [1]: 6 h
- Peak plasma hEPO expression ([1]; 6 hours): 6009±578 mlU/mL
- Increase in reticulocyte counts compared to poly(C)-LNP-treated group (reticulocytes): 64%
- Reticulocytes, % of total red blood cells (reticulocytes): 6.4±0.2%
- Plasma TNF-α (immunogenicity) [2]: No significant changes
- Plasma ALT (toxicity) [3]: No significant changes
